The source made the active and inactive calls.
Assays:
[1] = target: T1, Voltage-gated N-type calcium channel alpha-1B subunit/Amyloid beta A4 precursor protein-binding family A member 1 (Homo sapiens, UniProt Q00975+Q02410); type: protein assay
[2] = target: T2, Dual specificity protein phosphatase 6 (Rattus norvegicus, UniProt Q64346); assay: MKP-3 phosphatase inhibitors, primary screen, biochemical, rat enzyme, in vitro (AID 425)
T2 sequence (Q64346 whole entry): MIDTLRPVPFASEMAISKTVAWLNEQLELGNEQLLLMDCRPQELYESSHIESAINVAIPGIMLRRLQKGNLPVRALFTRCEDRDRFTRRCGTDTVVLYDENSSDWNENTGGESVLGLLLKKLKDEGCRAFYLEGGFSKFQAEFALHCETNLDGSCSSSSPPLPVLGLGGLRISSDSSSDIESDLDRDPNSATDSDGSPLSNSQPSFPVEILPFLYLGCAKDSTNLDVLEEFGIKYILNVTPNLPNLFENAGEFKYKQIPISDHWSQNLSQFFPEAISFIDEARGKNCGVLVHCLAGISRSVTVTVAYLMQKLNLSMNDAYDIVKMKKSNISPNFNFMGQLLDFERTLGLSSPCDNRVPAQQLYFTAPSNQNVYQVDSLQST

[3] = target: T3, Zinc finger protein mex-5 (Caenorhabditis elegans, UniProt Q9XUB2); assay: MEX-5/TCR-2 RNA interaction inhibitors, dose response, biochemical, C. elegans, fluorescence polarization (AID 1960)
T3 sequence (Q9XUB2 whole entry): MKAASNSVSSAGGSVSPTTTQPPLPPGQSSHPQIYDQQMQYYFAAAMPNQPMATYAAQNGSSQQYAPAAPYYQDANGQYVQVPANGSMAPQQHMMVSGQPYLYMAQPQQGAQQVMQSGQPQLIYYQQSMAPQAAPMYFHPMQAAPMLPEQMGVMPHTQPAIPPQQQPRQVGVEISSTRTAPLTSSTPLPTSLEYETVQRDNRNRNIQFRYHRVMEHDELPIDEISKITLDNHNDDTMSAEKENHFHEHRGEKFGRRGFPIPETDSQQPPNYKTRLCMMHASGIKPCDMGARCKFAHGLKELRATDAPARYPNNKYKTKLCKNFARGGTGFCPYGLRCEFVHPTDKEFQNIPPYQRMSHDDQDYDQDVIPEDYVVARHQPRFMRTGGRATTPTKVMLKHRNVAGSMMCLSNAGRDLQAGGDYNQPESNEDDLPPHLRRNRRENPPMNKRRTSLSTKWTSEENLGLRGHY

[4] = target: T1, Voltage-gated N-type calcium channel alpha-1B subunit/Amyloid beta A4 precursor protein-binding family A member 1; type: protein assay; remark: listed apart in the source
[5] = target: T4, Dual specificity protein phosphatase 3 (Homo sapiens, UniProt P51452); assay: VHR1 phosphatase inhibitors, primary screen, biochemical, absorbance, uHTS (AID 1654)
T4 sequence (P51452 whole entry): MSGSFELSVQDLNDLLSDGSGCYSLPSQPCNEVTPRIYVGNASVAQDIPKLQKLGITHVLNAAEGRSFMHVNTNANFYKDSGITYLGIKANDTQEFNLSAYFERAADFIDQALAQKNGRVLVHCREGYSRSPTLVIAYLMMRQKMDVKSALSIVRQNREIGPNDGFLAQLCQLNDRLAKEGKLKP

[6] = target: T4, Dual specificity protein phosphatase 3; assay: VHR1 phosphatase inhibitors, biochemical (AID 1878)
[7] = target: T5, Serine/threonine-protein phosphatase (Homo sapiens, UniProt Q9BPW0); assay: Counterscreen for inhibitors of PP1: fluorescence-based biochemical high throughput dose response assay to identify inhibitors of Protein Phosphatase 5 (PP5). [Related pubchem assays: 2034 (Summary (PP5 inhibitors)), 1987 (PP5 inhibitors in singlate), 2235 (PP1 inhibitors in singlate)]
T5 sequence (Q9BPW0 whole entry): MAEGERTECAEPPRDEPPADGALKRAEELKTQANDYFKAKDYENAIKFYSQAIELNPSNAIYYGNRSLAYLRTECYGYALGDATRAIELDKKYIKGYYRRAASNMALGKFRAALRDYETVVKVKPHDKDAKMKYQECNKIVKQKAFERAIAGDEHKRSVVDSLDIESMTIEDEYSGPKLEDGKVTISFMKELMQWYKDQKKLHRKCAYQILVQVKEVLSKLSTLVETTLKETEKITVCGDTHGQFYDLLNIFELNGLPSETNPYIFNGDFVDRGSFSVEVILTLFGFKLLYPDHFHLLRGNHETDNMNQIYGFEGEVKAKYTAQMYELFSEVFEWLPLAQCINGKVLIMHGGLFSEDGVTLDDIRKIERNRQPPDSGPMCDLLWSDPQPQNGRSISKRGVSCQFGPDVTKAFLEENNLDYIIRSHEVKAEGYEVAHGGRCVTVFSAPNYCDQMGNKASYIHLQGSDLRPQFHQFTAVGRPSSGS

[8] = target: Serine/threonine-protein phosphatase PP1-alpha catalytic subunit (Homo sapiens, UniProt P62136); assay: PP1 phosphatase inhibitors, dose response, biochemical, fluorescence (AID 2403);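 further: phosphatase turnover of OMFP into fluorescent 3-O-methylfluorescein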
Sequence of Serine/threonine-protein phosphatase PP1-alpha catalytic subunit (P62136 whole entry): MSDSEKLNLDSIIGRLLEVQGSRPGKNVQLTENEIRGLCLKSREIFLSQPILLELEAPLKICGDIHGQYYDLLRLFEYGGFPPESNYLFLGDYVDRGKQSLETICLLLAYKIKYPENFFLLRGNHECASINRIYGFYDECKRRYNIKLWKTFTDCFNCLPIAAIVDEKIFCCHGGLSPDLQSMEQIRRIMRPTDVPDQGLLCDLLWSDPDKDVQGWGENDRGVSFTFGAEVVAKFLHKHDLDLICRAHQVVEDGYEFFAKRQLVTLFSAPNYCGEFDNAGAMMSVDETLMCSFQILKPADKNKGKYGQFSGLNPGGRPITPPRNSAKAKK

[9] = target: T6, Delta-type opioid receptor (Homo sapiens, UniProt P41143); assay: SAR Analysis of Agonists of the DOR Receptor using an Image-Based Assay - Set 3. [Related pubchem assays (depositor defined):AID1777, AID1786]; type: functional
T6 sequence (P41143 whole entry): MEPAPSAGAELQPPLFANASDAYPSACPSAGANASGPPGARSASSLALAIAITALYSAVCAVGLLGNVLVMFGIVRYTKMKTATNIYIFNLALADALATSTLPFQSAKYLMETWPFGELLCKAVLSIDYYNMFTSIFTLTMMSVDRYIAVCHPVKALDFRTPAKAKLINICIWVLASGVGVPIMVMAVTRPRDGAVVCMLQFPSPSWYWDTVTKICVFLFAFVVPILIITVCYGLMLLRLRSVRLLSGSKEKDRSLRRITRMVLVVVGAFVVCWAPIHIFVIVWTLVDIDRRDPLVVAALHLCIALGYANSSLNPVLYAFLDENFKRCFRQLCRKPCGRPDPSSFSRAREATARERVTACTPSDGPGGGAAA

Mu-type opioid receptor [10] = target: T7, Mu-type opioid receptor (Homo sapiens, UniProt P35372); assay: SAR Analysis of Agonists of the MOR Receptor using an Image-Based Assay - Set 3. [Related pubchem assays (depositor defined):AID1777, AID1785, AID1786, AID1966, AID2133, AID2136, AID2284, AID2285, AID2352]; type: functional
T7 sequence (P35372 whole entry): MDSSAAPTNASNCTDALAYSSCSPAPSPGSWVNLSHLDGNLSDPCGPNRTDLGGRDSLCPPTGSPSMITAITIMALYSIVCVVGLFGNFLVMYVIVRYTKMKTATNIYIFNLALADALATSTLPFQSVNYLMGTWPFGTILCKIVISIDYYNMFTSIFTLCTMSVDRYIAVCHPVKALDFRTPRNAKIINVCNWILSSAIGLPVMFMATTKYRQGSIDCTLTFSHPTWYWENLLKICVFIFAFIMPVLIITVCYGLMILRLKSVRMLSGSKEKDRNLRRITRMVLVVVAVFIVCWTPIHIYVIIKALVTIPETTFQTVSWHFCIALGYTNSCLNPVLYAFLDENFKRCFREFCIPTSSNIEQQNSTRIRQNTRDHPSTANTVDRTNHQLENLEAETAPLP

[11] = target: T6, Delta-type opioid receptor; assay: DOR agonists, SAR follow-up, image-based (AID 2370); type: functional
Mu-type opioid receptor [12] = target: T7, Mu-type opioid receptor; assay: MOR agonists by imaging, SAR follow-up, image-based (AID 2352); type: functional
Mu-type opioid receptor [13] = target: T7, Mu-type opioid receptor; assay: MOR antagonists, SAR follow-up, image-based (AID 2420); type: functional;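 further: compounds added before stimulation of receptor with agonist DAMGO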
[14] = target: T8, Kappa-type opioid receptor (Homo sapiens, UniProt P41145); assay: SAR analysis of small molecule agonists of the kappa opioid receptor via a luminescent beta-arrestin assay. [Related pubchem assays (depositor defined):AID1777, AID1786, AID1966, AID2133, AID2136, AID2348, AID2352, AID2357, AID2359, AID2370, AID2420, AID2478, AID2491, AID2492, AID2493, AID2497, AID2498, AID2500, AID449737, AID488822, AID488842]; type: functional
T8 sequence (P41145 whole entry): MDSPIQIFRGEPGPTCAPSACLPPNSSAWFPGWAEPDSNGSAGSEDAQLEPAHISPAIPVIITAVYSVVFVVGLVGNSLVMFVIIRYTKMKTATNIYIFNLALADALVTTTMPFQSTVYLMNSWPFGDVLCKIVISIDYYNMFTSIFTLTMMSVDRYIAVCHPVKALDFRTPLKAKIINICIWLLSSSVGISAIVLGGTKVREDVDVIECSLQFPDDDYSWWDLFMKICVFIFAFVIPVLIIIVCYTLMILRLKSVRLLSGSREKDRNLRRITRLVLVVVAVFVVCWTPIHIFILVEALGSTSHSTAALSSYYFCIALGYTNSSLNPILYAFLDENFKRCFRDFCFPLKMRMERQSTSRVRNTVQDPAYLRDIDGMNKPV

[15] = target: T8, Kappa-type opioid receptor; assay: KOR antagonists by imaging, SAR follow-up, image-based (AID 2348); type: functional
[16] = target: T6, Delta-type opioid receptor; assay: DOR antagonists, SAR follow-up, image-based (AID 2357); type: functional
[17] = target: T8, Kappa-type opioid receptor; assay: SAR analysis of small molecule agonists of the kappa opioid receptor via a luminescent beta-arrestin assay - Set 3. [Related pubchem assays (depositor defined):AID1777, AID1785, AID1786, AID1966, AID2133, AID2136, AID2284, AID2500]; type: functional
[18] = target: T8, Kappa-type opioid receptor; assay: KOR agonist analogs, imaging readout, SAR follow-up, image-based (AID 2359); type: functional
[19] = target: T8, Kappa-type opioid receptor; assay: KOR agonist analogs, arrestin-GFP redistribution, SAR follow-up, imaging, image-based, set 3 (AID 488833); type: functional
Phosphomannomutase 2 = Phosphomannomutase 2 (Homo sapiens, UniProt O15305); assay: Counter screen SAR assay for PMM2 inhibitors via a fluorescence intensity assay. [Related pubchem assays (depositor defined):AID1545, AID1574]
[20] = target: T9, Mannose-6-phosphate isomerase (Homo sapiens, UniProt P34949); assay: PMI enzyme inhibitors, confirmation, biochemical, fluorescence intensity (AID 1535)
T9 sequence (P34949 whole entry): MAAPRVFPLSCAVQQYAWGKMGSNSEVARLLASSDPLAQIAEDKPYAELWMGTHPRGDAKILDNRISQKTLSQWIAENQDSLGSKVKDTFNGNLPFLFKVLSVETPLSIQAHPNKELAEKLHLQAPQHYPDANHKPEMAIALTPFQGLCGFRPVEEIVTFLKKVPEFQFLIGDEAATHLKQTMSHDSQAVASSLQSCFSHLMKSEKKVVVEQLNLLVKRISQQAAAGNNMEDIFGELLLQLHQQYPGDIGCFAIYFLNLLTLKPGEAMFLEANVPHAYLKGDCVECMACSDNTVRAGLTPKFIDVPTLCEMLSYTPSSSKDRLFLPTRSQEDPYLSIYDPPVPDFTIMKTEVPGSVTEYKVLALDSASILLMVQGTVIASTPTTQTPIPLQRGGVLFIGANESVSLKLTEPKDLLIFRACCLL

Apelin receptor = Apelin receptor (Homo sapiens, UniProt P35414); assay: APJ beta-arrestin recruitment antagonism, SAR follow-up, selectivity assay for CCR6 antagonist project, cell-based, luminescent, enzyme-fragment complementation (AID 588359); type: functional
CAAX prenyl protease 1 = CAAX prenyl protease 1 (Saccharomyces cerevisiae S288c, UniProt P47154); assay: Ste24 protease inhibitors, dose response, biochemical, S. cerevisiae, plate reader, cherry-pick (AID 488815)
Trypsin = Trypsin (Sus scrofa, UniProt P00761); assay: porcine trypsin inhibitors, dose response, selectivity assay for Rce1 protease inhibitor project, biochemical, quenched peptide fluorescence, cherry-pick (AID 488789)
[21] = growth induction of Burl-1 ts yeast mutant, dose response, counter-screen for SUMOylation pathway inhibitor project, whole organism, S. cerevisiae, luminescence (AID 463199); type: functional

T1 sequence (Q00975 whole entry): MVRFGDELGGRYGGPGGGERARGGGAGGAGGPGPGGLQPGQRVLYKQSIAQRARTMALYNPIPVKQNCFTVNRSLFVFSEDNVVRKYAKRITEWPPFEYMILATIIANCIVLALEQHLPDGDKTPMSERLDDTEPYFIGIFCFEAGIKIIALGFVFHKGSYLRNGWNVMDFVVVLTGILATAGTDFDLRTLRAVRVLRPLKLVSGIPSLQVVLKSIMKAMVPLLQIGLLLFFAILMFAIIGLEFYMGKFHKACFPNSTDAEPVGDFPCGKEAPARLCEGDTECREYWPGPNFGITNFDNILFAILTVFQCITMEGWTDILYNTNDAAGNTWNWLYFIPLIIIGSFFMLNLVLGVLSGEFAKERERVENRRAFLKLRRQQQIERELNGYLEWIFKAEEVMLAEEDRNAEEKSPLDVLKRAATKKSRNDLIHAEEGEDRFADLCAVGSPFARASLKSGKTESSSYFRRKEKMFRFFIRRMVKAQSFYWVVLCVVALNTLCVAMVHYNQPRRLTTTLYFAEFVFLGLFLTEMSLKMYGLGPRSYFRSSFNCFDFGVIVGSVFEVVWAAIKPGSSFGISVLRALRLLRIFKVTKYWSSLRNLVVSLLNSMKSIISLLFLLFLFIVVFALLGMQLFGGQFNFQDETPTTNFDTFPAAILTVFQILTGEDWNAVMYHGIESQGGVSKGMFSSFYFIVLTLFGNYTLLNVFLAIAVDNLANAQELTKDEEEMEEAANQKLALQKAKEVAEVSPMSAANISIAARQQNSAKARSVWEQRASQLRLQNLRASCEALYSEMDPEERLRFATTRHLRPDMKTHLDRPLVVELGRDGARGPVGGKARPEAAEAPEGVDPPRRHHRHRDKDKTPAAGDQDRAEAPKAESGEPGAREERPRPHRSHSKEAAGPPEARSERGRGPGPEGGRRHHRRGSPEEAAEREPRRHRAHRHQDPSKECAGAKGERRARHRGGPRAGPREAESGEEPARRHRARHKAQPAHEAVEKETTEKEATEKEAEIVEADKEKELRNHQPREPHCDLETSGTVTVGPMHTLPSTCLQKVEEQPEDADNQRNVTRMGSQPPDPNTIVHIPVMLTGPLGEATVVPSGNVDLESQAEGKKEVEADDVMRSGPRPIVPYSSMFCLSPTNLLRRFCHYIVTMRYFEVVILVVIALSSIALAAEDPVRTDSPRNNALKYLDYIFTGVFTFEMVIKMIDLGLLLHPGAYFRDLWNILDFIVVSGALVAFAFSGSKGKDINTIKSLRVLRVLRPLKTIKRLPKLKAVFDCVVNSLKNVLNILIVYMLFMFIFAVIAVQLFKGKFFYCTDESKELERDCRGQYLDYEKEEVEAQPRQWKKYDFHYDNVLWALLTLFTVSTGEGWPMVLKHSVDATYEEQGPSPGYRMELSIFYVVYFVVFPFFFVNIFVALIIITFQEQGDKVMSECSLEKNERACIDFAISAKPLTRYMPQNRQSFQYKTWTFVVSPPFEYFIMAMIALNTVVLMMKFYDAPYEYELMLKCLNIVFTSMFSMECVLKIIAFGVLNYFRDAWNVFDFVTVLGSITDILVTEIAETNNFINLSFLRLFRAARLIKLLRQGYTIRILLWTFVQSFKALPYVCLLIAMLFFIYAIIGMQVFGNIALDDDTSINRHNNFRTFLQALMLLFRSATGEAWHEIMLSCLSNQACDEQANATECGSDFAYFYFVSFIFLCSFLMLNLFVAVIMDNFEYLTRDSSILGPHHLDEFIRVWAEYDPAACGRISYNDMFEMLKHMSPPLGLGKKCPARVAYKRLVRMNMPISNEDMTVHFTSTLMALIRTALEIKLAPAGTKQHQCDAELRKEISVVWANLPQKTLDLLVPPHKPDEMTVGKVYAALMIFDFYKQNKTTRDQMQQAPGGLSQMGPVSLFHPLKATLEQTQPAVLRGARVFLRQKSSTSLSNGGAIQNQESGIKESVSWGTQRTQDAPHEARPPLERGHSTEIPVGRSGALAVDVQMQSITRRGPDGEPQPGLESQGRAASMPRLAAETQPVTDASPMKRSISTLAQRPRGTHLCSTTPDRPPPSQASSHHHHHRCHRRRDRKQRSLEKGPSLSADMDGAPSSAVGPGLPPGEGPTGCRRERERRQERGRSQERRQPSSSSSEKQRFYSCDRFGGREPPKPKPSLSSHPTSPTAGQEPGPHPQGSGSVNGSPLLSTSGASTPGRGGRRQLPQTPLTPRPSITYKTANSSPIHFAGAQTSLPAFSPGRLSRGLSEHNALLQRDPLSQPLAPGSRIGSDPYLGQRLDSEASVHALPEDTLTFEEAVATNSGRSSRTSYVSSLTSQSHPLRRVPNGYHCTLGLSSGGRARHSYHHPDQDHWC
T1 sequence (Q02410 whole entry): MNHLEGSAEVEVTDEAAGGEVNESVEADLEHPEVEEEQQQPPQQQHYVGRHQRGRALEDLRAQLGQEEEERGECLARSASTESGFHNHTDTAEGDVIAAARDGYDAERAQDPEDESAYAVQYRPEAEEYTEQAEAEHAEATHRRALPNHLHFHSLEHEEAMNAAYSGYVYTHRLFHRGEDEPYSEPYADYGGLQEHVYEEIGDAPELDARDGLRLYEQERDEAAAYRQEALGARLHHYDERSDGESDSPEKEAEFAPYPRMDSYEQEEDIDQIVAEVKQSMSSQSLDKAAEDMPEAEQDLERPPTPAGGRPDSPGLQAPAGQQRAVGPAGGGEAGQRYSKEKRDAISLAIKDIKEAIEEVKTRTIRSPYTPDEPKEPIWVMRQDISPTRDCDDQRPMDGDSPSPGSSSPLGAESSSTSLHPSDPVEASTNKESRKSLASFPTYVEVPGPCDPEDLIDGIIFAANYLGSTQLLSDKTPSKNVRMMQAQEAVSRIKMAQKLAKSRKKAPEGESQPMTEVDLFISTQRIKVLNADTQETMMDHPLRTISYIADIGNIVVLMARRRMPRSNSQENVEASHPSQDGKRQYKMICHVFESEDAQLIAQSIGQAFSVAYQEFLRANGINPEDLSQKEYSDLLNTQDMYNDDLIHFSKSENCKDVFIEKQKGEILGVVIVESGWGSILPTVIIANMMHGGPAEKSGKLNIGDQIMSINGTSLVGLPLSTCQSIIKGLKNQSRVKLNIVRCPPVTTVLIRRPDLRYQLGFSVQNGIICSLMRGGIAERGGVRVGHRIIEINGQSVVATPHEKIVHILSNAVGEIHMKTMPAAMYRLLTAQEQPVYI

SMILES: O=C1NC(=S)N(c2ccc(F)cc2)C(=O)/C1=C/c1ccco1
- IC50 [1]: 3.33 µM (active)
- IC50 [2]: 1.36 µM (active)
- EC50 [3]: 11.1 µM (active)
- IC50 [4]: 4.45 µM (active)
- IC50 [5]: < 1.23 µM (inactive)
- IC50 [6]: < 1.23 µM (inactive)
- IC50 [7]: > 67 µM (not active)
- IC50 [8]: 8.21 µM (active)

SMILES: Clc1ccccc1CSc1nnc(-c2ccccn2)n1Cc1ccco1
- EC50 [9]: > 64 µM (inactive)
- EC50 (Mu-type opioid receptor [10]): > 32 µM (inactive)
- EC50 [11]: > 32 µM (inactive)
- EC50 (Mu-type opioid receptor [12]): > 32 µM (inactive)
- IC50 (Mu-type opioid receptor [13]): > 32 µM (inactive)
- EC50 [14]: > 10 µM (inactive)
- IC50 [15]: > 32 µM (inactive)
- IC50 [16]: > 32 µM (inactive)
- EC50 [17]: 9.07 µM (active)
- EC50 [18]: 10.4 µM (active)
- EC50 [19]: 11.6 µM (inactive)

SMILES: O=C1c2ccccc2SC1c1ccccc1 (stereo not given)
- IC50 (Phosphomannomutase 2): > 100 µM (inactive)
- IC50 [20]: > 100 µM (inactive)

SMILES: C/C(=N\Nc1ccc2ccccc2n1)c1ccccc1O
- IC50 (Apelin receptor): 4.12 µM (active)

SMILES: COc1cccc(C2CC3=Nc4ccccc4N(C(=O)CCC(=O)O)C(c4ccc(F)cc4)C3=C(O)C2)c1 (stereo not given)
- AC50 (CAAX prenyl protease 1): 21.6 µM (active)
- AC50 (Trypsin): 12 µM (active)

SMILES: S=C(NCCc1c[nH]c2ccccc12)NC1CC1
- AC50 [21]: 51 µM (active)

Source: ChEMBL document CHEMBL1201862, “PubChem BioAssay data set” (2004)
